From patent publication US20260265271A1, “Cereblon Ligands and Uses Thereof” (REGENTS OF THE UNIVERSITY OF MICHIGAN, priority 2022, published 2026)
Structures can show the parent of a compound that is named as a salt.

What was measured:
CRBN/DDB1 = CRBN/DDB1 (Homo sapiens, UniProt Q96SW2); assay: biochemical
Procedure: The CRBN-DDB1 binding potency of the present disclosure was determined using HTRF assay technology (Perkin Elmer). Compounds are serially diluted and are transferred multi-well plate. […] After one hour incubation at room temperature, the HTRF signals were read on Envision reader (Perkin Elemer).
The binding potency was determined using HTRF assay technology (Perkin Elmer). Compounds were serially diluted in DMSO and 0.2 μL volume was transferred to white 384-well plate. […] After one hour incubation at room temperature, the HTRF signals were read on Envision reader (Perkin Elemer).

ER [1] = target: T1, ER (Homo sapiens, UniProt P03372); assay: ER degradation by in-cell western (ICW), MCF7 cells; format: cell-based; parameters: endogenous in cells; host or cells: MCF-7; details: for Dmax: MCF7, read-out: MCF7 Dmax (%); for DC50: MCF7 cells, ER in-cell western, 16 hours
T1 sequence (P03372 whole entry): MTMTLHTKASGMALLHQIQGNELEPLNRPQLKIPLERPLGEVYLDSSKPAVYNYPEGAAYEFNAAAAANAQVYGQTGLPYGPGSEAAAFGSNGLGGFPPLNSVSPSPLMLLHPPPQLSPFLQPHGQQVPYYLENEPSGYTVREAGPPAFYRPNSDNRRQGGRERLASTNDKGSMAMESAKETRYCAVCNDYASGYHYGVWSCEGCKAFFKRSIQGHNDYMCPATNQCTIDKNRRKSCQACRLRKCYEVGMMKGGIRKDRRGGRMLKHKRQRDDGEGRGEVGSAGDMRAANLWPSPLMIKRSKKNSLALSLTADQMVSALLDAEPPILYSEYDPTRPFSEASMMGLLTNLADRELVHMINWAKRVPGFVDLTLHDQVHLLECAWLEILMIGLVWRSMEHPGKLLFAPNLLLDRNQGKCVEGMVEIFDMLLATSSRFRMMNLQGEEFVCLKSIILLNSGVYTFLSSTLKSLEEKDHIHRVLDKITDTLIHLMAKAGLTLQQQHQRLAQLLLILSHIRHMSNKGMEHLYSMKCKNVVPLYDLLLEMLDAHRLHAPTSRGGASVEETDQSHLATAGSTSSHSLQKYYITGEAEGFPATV
Procedure: (§1) ERa degradative activity of compounds can be assessed in MCF-7 and T47D Cells. MCF-7 and T47D cell are seeded and are subsequently treated with the compounds at certain concentrations (e.g., 0.02 to 300 nM). DMSO can be used as vehicle control. Cells are fixed and are blocked with Intercept (PBS) Blocking Buffer (e.g., Li—COR, Odyssey Blocking Buffer), and are stained with ER (e.g., 1:500, Cell signaling) primary antibody for overnight at cold room. Secondary Antibody (e.g., IRDye 800CW Goat anti-Rabbit IgG) and CellTag 700 Stain are added in Intercept (PBS) Blocking Buffer. Finally, cell plate is placed in incubator to dry. Image and signal were captured on Odyssey@DLx Imaging System.
(§2) In-cell western blot analysis. Cells are seeded in multi-well plates (e.g., at 40,000 or 10,000 cells/well). Diluted compounds at certain concentration are added (final 0.5% DMSO) and cells are incubated for certain period of time (e.g., 16 hours). Formaldehyde (e.g., PBS:FA=9:1) is added and followed by washing with PBS. The cells are blocked with Licor blocking buffer (Li-Cor). The relative ER percentage in treated cells were obtained by comparing the values of treated wells to those in untreated and DMSO-treated wells as 100%.
(§3) In-cell western blot analysis. a. seed cells in black-sided/clear bottom 96- or 384-well plates at 40,000 or 10,000 cells/well, overnight; b. add diluted compounds (final 0.5% DMSO), 16 hours. […] RT 2 h, gentle shaking. Negative control: cells plus secondary antibodies (no primary antibodies); e. wash×4 with PBS +0.05-0.1% Tween 20, gentel shaking; f. anti-rabbit-680 and anti-mouse-800 (both 1:1000 in LiCor block +0.05% Tween20, RT 1 h, gentle shaking, no light. LI-COR: 0.2% to reduce background; g. wash×4 with PBS+0.05% Tween 20, gental shaking; h. add 100 μL or 25 μL of PBS to each well and read on CLX plate reader. The relative ER percentage in treated cells were obtained by comparing the values of treated wells to those in untreated and DMSO-treated wells as 100%.

ER [2] = target: T1, ER; assay: ER degradation by in-cell western (ICW), T47D cells; format: cell-based; parameters: endogenous in cells; host or cells: T47D; details: for DC50: T47D cells, ER in-cell western, 16 hours; for Dmax: T47D, read-out: T47D Dmax (%)
Procedure: as §1, §2, §3

Chain of CRBN/DDB1 (Q96SW2 whole entry): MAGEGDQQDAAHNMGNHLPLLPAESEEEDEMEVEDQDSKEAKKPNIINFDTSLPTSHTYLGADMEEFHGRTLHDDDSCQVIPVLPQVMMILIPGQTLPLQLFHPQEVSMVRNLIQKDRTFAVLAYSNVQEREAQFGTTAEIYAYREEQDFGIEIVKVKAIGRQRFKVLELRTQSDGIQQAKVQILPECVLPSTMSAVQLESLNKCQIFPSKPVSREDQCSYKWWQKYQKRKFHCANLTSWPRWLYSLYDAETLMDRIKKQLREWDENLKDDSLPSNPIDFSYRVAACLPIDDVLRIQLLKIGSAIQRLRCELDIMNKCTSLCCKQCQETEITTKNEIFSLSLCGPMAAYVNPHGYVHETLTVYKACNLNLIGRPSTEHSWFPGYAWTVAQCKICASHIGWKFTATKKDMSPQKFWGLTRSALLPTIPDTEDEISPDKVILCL
Chain of CRBN/DDB1 (Q16531 whole entry, further chain): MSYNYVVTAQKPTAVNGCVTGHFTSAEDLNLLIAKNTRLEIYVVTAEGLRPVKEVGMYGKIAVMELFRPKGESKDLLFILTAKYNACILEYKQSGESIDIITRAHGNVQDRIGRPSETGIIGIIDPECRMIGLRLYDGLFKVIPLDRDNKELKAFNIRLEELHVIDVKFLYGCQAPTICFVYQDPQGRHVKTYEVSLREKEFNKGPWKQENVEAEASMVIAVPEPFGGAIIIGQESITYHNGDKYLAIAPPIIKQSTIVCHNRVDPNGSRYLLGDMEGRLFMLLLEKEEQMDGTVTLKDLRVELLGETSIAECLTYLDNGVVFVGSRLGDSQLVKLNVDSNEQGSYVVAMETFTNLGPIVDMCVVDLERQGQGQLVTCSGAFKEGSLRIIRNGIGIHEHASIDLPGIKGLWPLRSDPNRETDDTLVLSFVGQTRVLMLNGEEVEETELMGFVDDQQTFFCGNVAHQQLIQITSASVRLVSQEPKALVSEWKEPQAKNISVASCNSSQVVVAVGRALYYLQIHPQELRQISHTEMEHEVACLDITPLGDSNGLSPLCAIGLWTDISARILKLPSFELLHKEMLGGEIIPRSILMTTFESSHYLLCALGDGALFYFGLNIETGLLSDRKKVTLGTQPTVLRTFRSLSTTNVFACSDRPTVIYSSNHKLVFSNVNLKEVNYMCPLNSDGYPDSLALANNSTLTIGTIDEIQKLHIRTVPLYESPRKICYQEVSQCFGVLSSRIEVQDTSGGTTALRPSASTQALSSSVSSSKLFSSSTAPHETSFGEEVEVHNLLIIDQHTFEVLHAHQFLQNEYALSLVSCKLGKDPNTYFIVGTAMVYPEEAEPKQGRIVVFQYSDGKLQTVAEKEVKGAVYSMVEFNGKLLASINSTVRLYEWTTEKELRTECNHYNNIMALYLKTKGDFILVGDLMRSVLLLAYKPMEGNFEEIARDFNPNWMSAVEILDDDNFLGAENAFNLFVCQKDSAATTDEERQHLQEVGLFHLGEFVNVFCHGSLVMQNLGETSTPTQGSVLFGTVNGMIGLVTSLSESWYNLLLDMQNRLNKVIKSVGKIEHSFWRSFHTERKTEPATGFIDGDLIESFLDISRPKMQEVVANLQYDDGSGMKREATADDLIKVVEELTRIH

Compound | IC50 (CRBN/DDB1) | Dmax (ER [1]) | DC50 (ER [1]) | DC50 (ER [2]) | Dmax (ER [2])
CN1CCN2c3cc(F)c(C(=O)N[C@H]4CCC(=O)NC4=O)cc3OC[C@@H]2C1 [Compound A2, (S)—N—((S)-2,6-dioxopiperidin-3-yl)-9-fluoro-3-methyl-1,2,3,4,4a,5-hexahydrobenzo[b]pyrazino[1,2-d][1,4]oxazine-8-carboxamide] | 3640 nM | – | – | – | –
CC(C)(C)OC(=O)N1CCN2c3cc4c(cc3OC[C@@H]2C1)C(=O)N(C1CCC(=O)NC1=O)C4 (stereo partly drawn) [Compound A3, tert-butyl (4aS)-9-(2,6-dioxopiperidin-3-yl)-8-oxo-1,2,4a,5,9,10-hexahydro-8H-pyrazino[1′,2′:4,5][1,4]oxazino[2,3-f]isoindole-3(4H)-carboxylate] | 330 nM | – | – | – | –
O=C1CC[C@H](N2Cc3cc4c(cc3C2=O)OC[C@@H]2CNCCN42)C(=O)N1 [Compound A8, (S)-3-((S)-8-oxo-3,4,4a,5-tetrahydro-1H-pyrazino [1′,2′:4,5][1,4]oxazino[2,3-f]isoindol-9(2H,8H,10H)-yl)piperidine-2,6-dione hydrochloride] | 430 nM | – | – | – | –
C[C@@H]1Cc2c(ccc3[nH]ncc23)[C@@H](c2ccc(N3CCC4(CC3)CC(CN3CCN5c6cc7c(cc6OC[C@@H]5C3)C(=O)N([C@@H]3CCC(=O)NC3=O)C7)C4)cn2)N1CC1(F)CC1 [IDZ-A12, (R)-3-((S)-3-((7-(6-((6S,8R)-7-((1-fluorocyclopropyl)methyl)-8-methyl-6,7,8,9-tetrahydro-3H-pyrazolo[4,3-f]isoquinolin-6-yl)pyridin-3-yl)-7-azaspiro[3.5]nonan-2-yl)methyl)-8-oxo-1,2,3,4,4a,5,8,10-octahydro-9H-pyrazino[1′,2′:4,5][1,4]oxazino[2,3-f]isoindol-9-yl)piperidine-2,6-dione] | – | > 75% | < 1 nM | < 1 nM | > 75%
C[C@@H]1Cc2c([nH]c3ccccc23)[C@@H](c2cnc(N3CCC4(CC3)CC(CN3CCN5c6ccc(C(=O)N[C@H]7CCC(=O)NC7=O)nc6OC[C@H]5C3)CO4)nc2)N1CC(F)F (stereo partly drawn) [IND-A63, (4aR)-3-((8-(5-((1R,3R)-2-(2,2-difluoroethyl)-3-methyl-2,3,4,9-tetrahydro-1H-pyrido[3,4-b]indol-1-yl)pyrimidin-2-yl)-1-oxa-8-azaspiro[4.5]decan-3-yl)methyl)-N—((S)-2,6-dioxopiperidin-3-yl)-1,2,3,4,4a,5-hexahydropyrazino[1,2-d]pyrido[2,3-b][1,4]oxazine-8-carboxamide] | – | 50 to 75% | 1 to 10 nM | 1 to 10 nM | 50 to 75%
